Data from US4157392A, “Pharmacologically active substituted 1,2,4-triazines” (Diamond Shamrock Corporation, priority 1978, dated 1979).
Like-named read-outs stand apart in the source and are kept apart here.

Key:
[1] = system: central nervous system activity in mice; experiment: Neuropharmacological Profile; type: in vivo, mouse (white male Carworth Farm Strain CF-1)
Experimental: The central nervous system activity of certain of the preferred compounds in accordance with the present invention were determined using the following neuropharmacological profile assay procedures.
White male mice of the Carworth Farm Strain (CF-1) weighing 18-22 grams were used in these determinations. […] Intraperitoneal injections were administered in logarithmic progression and sequentially. The dose levels employed routinely are 10, 30, 100, and 300 mg/kg, using four male mice at each dose level. Since this test was conducted in a sequential manner, the first dose administered was at 300 mg/kg. The mice were injected at this dose level and observed for gross changes produced by the drug, such as behavioral, neurological, autonomic, and toxic effects.
The animals were observed continuously for one hour and if no signs of pharmacological or toxicological activity were present at the end of the first hour, they were intermittently checked for activity every fifteen minutes thereafter for two consecutive hours. […] Subsequent dose levels below 300 mg/kg were not administered in this case. Alternatively, if demonstrable pharmacological changes occurred within the first three hours after administration of the drug at 300 mg/kg, the subsequent doses were administered and the animals observed for changes in overt behavior. The observation period begins immediately following the injection and the animals are then continuously observed for three hours and intermittently checked thereafter for forty-eight hours. The animals were observed and signs and symptoms of pharmacological activity were recorded continuously until no further symptoms developed and until the symptoms that had appeared were no longer present. […] It was very important that the animals were free to move about for evaluation of spacial orientation, alertness, and spontaneous motor activity. The animals were systematically observed and manipulated to measure the onset, peak effect, duration and character of drug action.
The major characteristics observed relative to central nervous system activity for the compounds indicated are summarized in the following Table IV.

[2] = system: phenylquinone writhing in mice; experiment: Phenylquinone Writhing Assay (analgesia); type: in vivo, mouse (Carworth CF1 male mice); conditions: for responders at 70 mg/kg: 70 mg/kg oral
Experimental: The phenylquinone writhing test was employed to evaluate analgesic activity according to the following procedure:
Phenylquinone (phenyl-p-benzoquinone, No. 7104, Eastman Organic Chemicals) is made up as a 0.02% aqueous solution in 5% ethyl alcohol. Phenylquinone solutions are made up fresh twice daily. Standard reference agents and the test compounds are dissolved or suspended in a 0.25% methylcellulose solution. A control group consisting of ten mice (Carworth CF1 male mice) are administered the 0.02% phenylquinone solution at a dose of 0.25 ml/mouse. The mice are housed individually and observed closely for ten minutes for exhibition of writhing. The onset of writhing occurs within three minutes and 100% of the mice must writhe within ten minutes. Test compounds are administered orally to groups of ten mice. The volume given is 0.01 ml/gram of body weight. Activity can be studied at 15, 30, 60, and 120 minutes after oral administration. After the designated time interval of a dose group has elapsed, the mice are challenged with phenylquinone intraperitoneally. Complete blocking of the writhing syndrom for the ten minute observation period in any one mouse is considered a positive analgesic response for that mouse. Conversely, if any mouse writhes definitely once it is considered not to be protected. The number of mice not writhing in group multiplied by ten equals percent analgesia for that dose at that time interval.

[3] = system: carrageenin-induced edema in the hind paw of a rat; experiment: Carrageenin Assay (carrageenin-induced edema, hind paw); type: in vivo, rat (male, Long Evans strain); conditions: 1 h before carrageenin, edema at 3 h, compared to phenylbutazone control values; for inhibition in vivo at 150 mg/kg: 150 mg/kg oral; for inhibition in vivo at 100 mg/kg: 100 mg/kg oral
Experimental: The procedure employed is a modification of the method of Winter et al, Proc. Soc. Exptl. Biol. Med. 111:544 (1962). The device used for measurement of the paw volume is an adaptation of the water displacement procedure described by Adamkiewicz et al, Can. J. Biochem. Physiol. 33:332 (1955). Test compounds were administered orally, one hour prior to the intraplantar injection of 0.05 ml. of sterile 1.0 percent solution of carrageenin into the left hind paw of male rats (Long Evans strain) weighing between about 130-200 grams. At peak swelling time (3 hours) the volume of edema was calculated by differential paw volumes.
Table I sets forth the results obtained (indicated as percent reduction of edema compared to phenylbutazone control values) at the indicated dosages for each of the identified compounds.

[4] = Mus musculus, po, 0.25 h, 100 mg/kg oral, 15 Min., read-out: Phenylquinone Writhing Assay (% Control), percent analgesia
[5] = Rattus norvegicus, 200 mg/kg oral, read-out: % Reduction of Edema
[6] = Mus musculus, po, 0.5 h, 100 mg/kg oral, 30 Min., read-out: Phenylquinone Writhing Assay (% Control), percent analgesia
[7] = Rattus norvegicus, read-out: % Reduction of Edema
[8] = Mus musculus, po, 1 h, 100 mg/kg oral, 60 Min, read-out: Phenylquinone Writhing Assay (% Control), percent analgesia
[9] = Mus musculus, po, 0.5 h, 25 mg/kg oral, 30 Min., read-out: Phenylquinone Writhing Assay (% Control), percent analgesia
[10] = Mus musculus, po, 0.25 h, 25 mg/kg oral, 15 Min., read-out: Phenylquinone Writhing Assay (% Control), percent analgesia
[11] = Mus musculus, po, 0.5 h, 50 mg/kg oral, 30 Min., read-out: Phenylquinone Writhing Assay (% Control), percent analgesia
[12] = Mus musculus, po, 0.5 h, 30 Min., read-out: Phenylquinone Writhing Assay (% Control), percent analgesia
[13] = Mus musculus, po, 1 h, 25 mg/kg oral, 60 Min, read-out: Phenylquinone Writhing Assay (% Control), percent analgesia
[14] = Mus musculus, po, 1 h, 50 mg/kg oral, 60 Min, read-out: Phenylquinone Writhing Assay (% Control), percent analgesia
[15] = 300,100,30 mg/kg intraperitoneal

For CN(CCO)c1nncc(-c2ccccc2)n1 [Example 73], the “CNS Activity” value ([1]; 300,100 mg/kg intraperitoneal) was “Hypnotic” and the responders at 100 mg/kg [2, 4] was 10%.
In the case of C=CCOc1nnc(C)c(C)n1 [Example 11, 3-allyloxy-5,6-dimethyl-1,2,4-triazine], the inhibition in vivo at 200 mg/kg [3, 5] is reported as 63%, the “CNS Activity” value ([1]; 300,100 mg/kg intraperitoneal) is reported as “Hypnotic” and the responders at 100 mg/kg [2, 6] is reported as 30%.
In the case of CSc1nncc(-c2cccc(C(F)(F)F)c2)n1 [Example 19, 3-methylthio-5-(3'-trifluoromethylphenyl)-1,2,4-triazine], the inhibition in vivo at 200 mg/kg [3, 5] is reported as 51%, the “CNS Activity” value ([1]; 300,100,30,10,3 mg/kg intraperitoneal) is reported as “Sedative” and the responders at 30 mg/kg ([2]; Mus musculus, po, 0.5 h, 30 mg/kg oral, 30 Min., read-out: Phenylquinone Writhing Assay (% Control), percent analgesia) is reported as 20%.
CSc1nncc(-c2ccc(F)cc2F)n1 [Example 42, 3-methylthio-5-(2',4'-difluorophenyl)-1,2,4-triazine] showed an inhibition in vivo at 150 mg/kg [3, 7] of 10%, a responders at 100 mg/kg [2, 4] of 20% and a responders at 100 mg/kg [2, 6] of 10%.
Molecule COc1cc(-c2cnnc(SC)n2)ccc1O [Example 32, 3-methylthio-5-(3'-methoxy-4'-hydroxyphenyl)-1,2,4-triazine] has an inhibition in vivo at 200 mg/kg [3, 5] of 5%, a responders at 100 mg/kg [2, 4] of 30% and a responders at 100 mg/kg [2, 6] of 10%. For the same molecule, the responders at 100 mg/kg [2, 8] was 10%.
Molecule CC(C)(C)c1cnnc(NN)n1 [Example 5, 3-hydrazino-5-t-butyl-1,2,4-triazine] has an inhibition in vivo at 175 mg/kg ([3]; Rattus norvegicus, 175 mg/kg oral, read-out: % Reduction of Edema) of 82% and a responders at 25 mg/kg [2, 9] of 20%.
For CSc1nncc(-c2cccs2)n1 [Example 6, 3-methylthio-5-(2'-thienyl)-1,2,4-triazine], the inhibition in vivo at 200 mg/kg [3, 5] was 51%, the responders at 25 mg/kg [2, 10] was 20% and the responders at 50 mg/kg [2, 11] was 70%.
In the case of Cc1nnc(OC(C)C)nc1C [Example 24, 3-isopropoxy-5,6-dimethyl-1,2,4-triazine], the inhibition in vivo at 200 mg/kg [3, 5] is reported as 37% and the responders at 70 mg/kg [2, 12] is reported as 10%.
In the case of “3-methoxy-5,6-di(4'-methylphenoxy)-1,2,4-triazine [Example 26]”, the “% Reduction of Edema” value ([3]; 200 mg/kg oral) is reported as 12%, the “Phenylquinone Writhing Assay (% Control), percent analgesia” value ([2]; 25 mg/kg oral, 15 Min.) is reported as 10% and the “Phenylquinone Writhing Assay (% Control), percent analgesia” value ([2]; 25 mg/kg oral, 30 Min.) is reported as 10%. The “Phenylquinone Writhing Assay (% Control), percent analgesia” value ([2]; 25 mg/kg oral, 60 Min) was 10%, the “Phenylquinone Writhing Assay (% Control), percent analgesia” value ([2]; 50 mg/kg oral, 15 Min.) was 40% and the “Phenylquinone Writhing Assay (% Control), percent analgesia” value ([2]; 50 mg/kg oral, 30 Min.) was 10%. The “Phenylquinone Writhing Assay (% Control), percent analgesia” value ([2]; 50 mg/kg oral, 60 Min) was 20%, the “Phenylquinone Writhing Assay (% Control), percent analgesia” value ([2]; 100 mg/kg oral, 15 Min.) was 20% and the “Phenylquinone Writhing Assay (% Control), percent analgesia” value ([2]; 100 mg/kg oral, 30 Min.) was 50%. For the same molecule, the “Phenylquinone Writhing Assay (% Control), percent analgesia” value ([2]; 100 mg/kg oral, 60 Min) was 50%.
CCC(=O)NNc1nncc(-c2ccc(Cl)cc2)n1 [Example 108, 3-propionylhydrazino-5-(4'-chlorophenyl)-1,2,4-triazine] showed an inhibition in vivo at 100 mg/kg [3, 7] of 40%, a responders at 25 mg/kg [2, 10] of 30% and a responders at 25 mg/kg [2, 9] of 50%. The responders at 25 mg/kg [2, 13] was 50%.
With COc1nncc(-c2ccc(OC)c(OC)c2)n1 [Example 38, 3-methoxy-5-(3',4'-dimethoxyphenyl)-1,2,4-triazine] the inhibition in vivo at 200 mg/kg [3, 5] was 52%, the responders at 100 mg/kg [2, 6] was 20% and the responders at 100 mg/kg [2, 8] was 10%.
Molecule CSc1nncc(-c2ccco2)n1 [Example 9, 3-methylthio-5-(2-furyl)-1,2,4-triazine] has an inhibition in vivo at 200 mg/kg [3, 5] of 39%, a responders at 50 mg/kg [2, 11] of 50% and a responders at 50 mg/kg [2, 14] of 10%.
For c1ccc(Oc2nnc(-c3ccccc3)c(-c3ccccc3)n2)cc1 [Example 53, 3-phenoxy-5,6-diphenyl-1,2,4-triazine], the inhibition in vivo at 200 mg/kg [3, 5] was 7%, the responders at 100 mg/kg [2, 4] was 20% and the responders at 100 mg/kg [2, 8] was 10%.
For CCCCOc1nccnn1 [Example 65, 3-n-butoxy-1,2,4-triazine], the “CNS Activity” value [1, 15] was “Antidepressant” and the responders at 50 mg/kg [2, 11] was 10%.
CSc1nncc(C(C)(C)C)n1 [Example 4, 3-methylthio-5-t-butyl-1,2,4-triazine] showed an inhibition in vivo at 150 mg/kg [3, 7] of 57% and a responders at 100 mg/kg [2, 6] of 20%.
Molecule COc1nncc(-c2cccc(C(F)(F)F)c2)n1 [Example 8, 3-methoxy-5-(3'-trifluoromethylphenyl)-1,2,4-triazine] has an inhibition in vivo at 100 mg/kg [3, 7] of 77% and a responders at 70 mg/kg [2, 12] of 10%.
CSc1nnc(-c2ccc(Cl)cc2)c(-c2ccc(Cl)cc2)n1 [Example 54, 3-methylthio-5,6-bis(4'-chlorophenyl)-1,2,4-triazine] was tested, and the inhibition in vivo at 200 mg/kg [3, 5] was 7% and the responders at 100 mg/kg [2, 4] was 10%.
In the case of COc1ccc(-c2nnc(N(C)CCO)nc2-c2ccc(OC)cc2)cc1 [Example 50, 3-(N-methyl-N-(B-hydroxyethyl)amino)-5,6-bis-(4'-methoxyphenyl)-1,2,4-triazine], the inhibition in vivo at 200 mg/kg [3, 5] is reported as 67%, the responders at 25 mg/kg [2, 10] is reported as 30% and the responders at 50 mg/kg ([2]; Mus musculus, po, 0.25 h, 50 mg/kg oral, 15 Min., read-out: Phenylquinone Writhing Assay (% Control), percent analgesia) is reported as 60%. It also gave a responders at 100 mg/kg [2, 4] of 70%, a responders at 25 mg/kg [2, 9] of 40% and a responders at 50 mg/kg [2, 11] of 50%. It also gave a responders at 100 mg/kg [2, 6] of 100%, a responders at 25 mg/kg [2, 13] of 20% and a responders at 50 mg/kg [2, 14] of 40%. The responders at 100 mg/kg [2, 8] was 80%.
Work on COc1nncc(C(C)(C)C)n1 [Example 18, 3-methoxy-5-t-butyl-1,2,4-triazine] yielded an inhibition in vivo at 200 mg/kg [3, 5] of 64% and a responders at 50 mg/kg [2, 11] of 40%.
Work on CSc1nncc(C23CC4CC(CC(C4)C2)C3)n1 [Example 34, 3-methylthio-5-(1'-adamantyl)-1,2,4-triazine] yielded an inhibition in vivo at 200 mg/kg [3, 5] of 17%, a responders at 100 mg/kg [2, 4] of 30% and a responders at 100 mg/kg [2, 6] of 10%.
Molecule CSc1nnc(-c2ccccn2)c(-c2ccccn2)n1 [Example 12, 3-methylthio-5,6-(2'-pyridyl)-1,2,4-triazine] has an inhibition in vivo at 200 mg/kg [3, 5] of 19%, a responders at 100 mg/kg [2, 6] of 10% and a responders at 100 mg/kg [2, 8] of 20%.
COc1nnc(-c2ccccc2)c(-c2ccccc2)n1 [Example 48, 3-methoxy-5,6-diphenyl-1,2,4-triazine] was tested, and the inhibition in vivo at 200 mg/kg [3, 5] was 17% and the “CNS Activity” value [1, 15] was “Muscle Relaxant”.
